Test results as given in the supplement of paper PMC10307832.

Compound: C1CN(CCN1)C2=CC=C(C=C2)C3=CN4C(=C(C=N4)C5=CC=NC6=CC=CC=C56)N=C3 [DM3189] + CCNC(=O)c1noc(-c2cc(C(C)C)c(O)cc2O)c1-c1ccc(CN2CCOCC2)cc1 [Luminespib] (partner 0.01 µM)
Test: relative viability (nuclei count vs DMSO), 5 days (fraction); higher = more cells survive
How it was run: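 Nuclei were stained with Hoechst during a one-step fixation (final 0.05% Triton X-100, 1% formaldehyde, 1 ug/ml Hoechst) carried out 5 days after dosing, then counted on 4× images. The cells, lung cancer lines in 1536-well plates, had been dosed by pin tool the day after seeding with one drug alone or a fixed anchor-drug dose plus five library-drug doses (not always all listed) in √10 steps. Relative viability is the nuclei count in treated wells divided by that in vehicle wells, and each value is the median of duplicate plates.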

| Cell Line | relative viability (first compound 0.08 µM) | relative viability (first compound 0.253 µM) | relative viability (first compound 0.8 µM) | relative viability (first compound 2.53 µM) |
| --- | --- | --- | --- | --- |
| NCI-H650 | 0.761 | 0.729 | 0.701 | 0.767 |
| NCI-H2023 | 0.811 | 0.863 | 1.09 | 0.663 |
| EPLC-272H | 0.738 | 0.317 | 0.25 | 0.281 |
| NCI-H596 | 1.27 | 1.07 | 1.09 | 0.851 |
| NCI-H3122 | 0.0997 | 0.103 | 0.072 | 0.0922 |
| NCI-H2087 | 0.187 | 0.145 | 0.139 | 0.176 |
| NCI-H441 | 0.288 | 0.363 | 0.314 | 0.264 |
| NCI-H1944 | 0.813 | 0.673 |  | 0.684 |
| LC-2-ad | 0.827 | 0.926 | 0.891 | 0.979 |
| NCI-H358 | 0.463 | 0.218 | 0.251 | 0.257 |
| NCI-H2170 | 0.939 | 0.836 | 0.762 | 0.764 |
| A-427 | 1.13 | 0.89 | 0.806 | 0.745 |
| NCI-H1666 | 1.15 | 0.983 | 1.05 | 1.07 |
| LOU-NH91 | 0.361 | 0.329 | 0.316 | 0.377 |
| ABC-1 | 0.516 | 0.489 | 0.531 | 0.278 |
| NCI-H1651 | 0.811 | 0.836 | 0.779 | 1.01 |
| 201T | 1.16 | 1.01 | 1.14 | 0.941 |
| NCI-H322M | 0.958 | 0.818 | 0.739 | 0.666 |
| NCI-H838 | 0.309 | 0.322 | 0.242 | 0.246 |
| NCI-H460 | 0.0319 | 0.0329 | 0.0354 | 0.0318 |
| HOP-62 | 0.981 | 0.905 | 0.774 | 1.01 |
| SK-LU-1 | 0.181 | 0.194 | 0.176 | 0.196 |
| HCC-44 | 1.06 | 0.879 | 0.856 | 0.97 |

| Cell Line | relative viability (first compound 0.08 µM) | relative viability (first compound 0.253 µM) | relative viability (first compound 0.8 µM) | relative viability (first compound 2.53 µM) |
| --- | --- | --- | --- | --- |
| LCLC-103H | 0.974 | 0.985 | 0.933 | 0.999 |
| NCI-H1915 | 0.697 | 0.817 | 0.606 | 0.485 |
| ChaGo-K-1 | 0.643 | 0.52 | 0.492 | 0.676 |
| PC-3 [JPC-3] | 0.725 | 0.705 | 0.694 | 0.512 |
| SW 1573 | 0.261 | 0.232 | 0.192 | 0.33 |
| NCI-H1437 | 1.15 | 1.1 | 1.1 | 1.1 |
| NCI-H1734 | 0.202 | 0.226 | 0.207 | 0.199 |
| LK-2 | 0.188 | 0.214 | 0.145 | 0.191 |
| HCC-15 | 0.355 | 0.399 | 0.391 | 0.369 |
| NCI-H661 | 1.07 | 0.922 | 0.959 | 0.78 |
| NCI-H2405 | 0.704 | 0.754 | 0.646 | 0.491 |
| LXF-289 | 0.758 | 0.583 | 0.61 | 0.805 |
| BEN | 0.387 | 0.555 | 0.516 | 0.382 |
| NCI-H2085 | 0.359 | 0.389 | 0.478 | 0.951 |
| NCI-H727 | 0.402 | 0.377 |  | 0.31 |
| NCI-H1355 | 0.621 | 0.674 | 0.626 | 0.602 |
| NCI-H1793 | 0.184 | 0.196 | 0.171 | 0.174 |
| COR-L 105 | 0.812 | 0.83 | 0.705 | 0.778 |
| NCI-H23 | 0.205 | 0.229 | 0.216 | 0.179 |
| PC-14 | 0.161 | 0.154 | 0.152 | 0.154 |
| EMC-BAC-2 | 1.24 | 1.07 | 1.06 | 1.25 |
| LU99A | 0.229 | 0.19 |  | 0.23 |
| RERF-LC-KJ | 1.37 | 1.3 | 1.46 | 1.19 |

| Cell Line | relative viability (first compound 0.08 µM) | relative viability (first compound 0.253 µM) | relative viability (first compound 0.8 µM) | relative viability (first compound 2.53 µM) |
| --- | --- | --- | --- | --- |
| NCI-H647 | 0.122 | 0.146 | 0.115 | 0.136 |
| LCLC-97TM1 | 0.71 | 0.574 | 0.699 | 0.606 |
| NCI-H2009 | 1.06 | 1.01 | 0.932 | 1.06 |
| HARA | 0.865 | 0.784 | 0.55 | 1.15 |
| NCI-H520 | 0.238 | 0.228 | 0.214 | 0.214 |
| NCI-H1650 | 0.183 | 0.183 | 0.188 | 0.197 |
| EKVX | 0.96 | 0.874 | 0.908 | 0.962 |
| NCI-H1755 | 0.384 | 0.476 | 0.425 | 0.419 |
| NCI-H1395 | 0.662 | 0.589 | 0.492 | 0.646 |
| NCI-H1792 | 0.416 | 0.552 | 0.445 | 0.328 |
| NCI-H2126 | 1.13 | 0.875 | 0.913 | 0.889 |
| H3255 | 1.09 | 0.957 | 0.799 | 0.951 |
| SK-MES-1 | 0.848 | 0.82 | 0.611 | 0.412 |
| NCI-H2347 | 0.671 | 0.504 | 0.565 | 0.485 |
| HCC-827 | 0.589 | 0.515 | 0.608 | 0.583 |
| NCI-H1993 | 0.785 | 0.705 | 0.712 | 0.885 |
| NCI-H1975 | 0.302 | 0.254 | 0.162 | 0.263 |
| NCI-H1563 | 0.568 | 0.487 | 0.481 | 0.539 |
| COR-L23 | 1.12 | 0.658 | 0.562 | 0.521 |
| CAL-12T | 0.375 | 0.499 | 0.454 | 0.217 |
| UMC-11 | 1.01 | 0.986 | 0.882 | 0.685 |
| NCI-H2228 | 0.112 | 0.132 | 0.144 | 0.167 |
